From ChEMBL document CHEMBL4813918, “From off-to on-target: New BRAF-inhibitor-template-derived compounds selectively targeting mitogen activated protein kinase kinase 4 (MKK4)” (Eur J Med Chem, 2021)

Tests used:
[1] = biological target: Mitogen-activated protein kinase kinase kinase kinase 5 (Homo sapiens) (UniProt Q9Y4K4); experiment: Binding affinity to wild type partial length human MAP4K5 (M1 to P297) expressed in Bacterial expression system assessed as residual activity at 100 nM measured by Kinomescan assay relative to control
[2] = biological target: Mitogen-activated protein kinase kinase kinase 20 (Homo sapiens) (UniProt Q9NYL2); experiment: Binding affinity to wild type partial length human ZAK (M1 to L331) expressed in bacterial expression system assessed as residual activity at 100 nM measured by Kinomescan assay
[3] = biological target: T1, Dual specificity mitogen-activated protein kinase kinase 7 (Homo sapiens) (UniProt O14733); experiment: Binding affinity to wild type full length human MKK7 (M1 to R419 residues) expressed in mammalian expression system assessed as residual activity at 100 nM measured by Kinomescan assay
T1 sequence (whole entry): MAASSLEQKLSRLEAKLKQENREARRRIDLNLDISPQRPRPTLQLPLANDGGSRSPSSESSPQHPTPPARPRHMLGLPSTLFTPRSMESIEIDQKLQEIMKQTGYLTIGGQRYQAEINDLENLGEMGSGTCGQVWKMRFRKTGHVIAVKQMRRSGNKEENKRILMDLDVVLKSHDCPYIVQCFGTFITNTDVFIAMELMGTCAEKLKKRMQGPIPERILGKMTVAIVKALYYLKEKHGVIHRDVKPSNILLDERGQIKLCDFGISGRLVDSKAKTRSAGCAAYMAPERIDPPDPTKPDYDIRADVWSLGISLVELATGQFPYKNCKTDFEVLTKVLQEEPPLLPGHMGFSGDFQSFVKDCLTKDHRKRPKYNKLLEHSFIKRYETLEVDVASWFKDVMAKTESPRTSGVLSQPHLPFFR

Chain of Mitogen-activated protein kinase kinase kinase kinase 5 (Homo sapiens) (Q9Y4K4 whole entry, looked up): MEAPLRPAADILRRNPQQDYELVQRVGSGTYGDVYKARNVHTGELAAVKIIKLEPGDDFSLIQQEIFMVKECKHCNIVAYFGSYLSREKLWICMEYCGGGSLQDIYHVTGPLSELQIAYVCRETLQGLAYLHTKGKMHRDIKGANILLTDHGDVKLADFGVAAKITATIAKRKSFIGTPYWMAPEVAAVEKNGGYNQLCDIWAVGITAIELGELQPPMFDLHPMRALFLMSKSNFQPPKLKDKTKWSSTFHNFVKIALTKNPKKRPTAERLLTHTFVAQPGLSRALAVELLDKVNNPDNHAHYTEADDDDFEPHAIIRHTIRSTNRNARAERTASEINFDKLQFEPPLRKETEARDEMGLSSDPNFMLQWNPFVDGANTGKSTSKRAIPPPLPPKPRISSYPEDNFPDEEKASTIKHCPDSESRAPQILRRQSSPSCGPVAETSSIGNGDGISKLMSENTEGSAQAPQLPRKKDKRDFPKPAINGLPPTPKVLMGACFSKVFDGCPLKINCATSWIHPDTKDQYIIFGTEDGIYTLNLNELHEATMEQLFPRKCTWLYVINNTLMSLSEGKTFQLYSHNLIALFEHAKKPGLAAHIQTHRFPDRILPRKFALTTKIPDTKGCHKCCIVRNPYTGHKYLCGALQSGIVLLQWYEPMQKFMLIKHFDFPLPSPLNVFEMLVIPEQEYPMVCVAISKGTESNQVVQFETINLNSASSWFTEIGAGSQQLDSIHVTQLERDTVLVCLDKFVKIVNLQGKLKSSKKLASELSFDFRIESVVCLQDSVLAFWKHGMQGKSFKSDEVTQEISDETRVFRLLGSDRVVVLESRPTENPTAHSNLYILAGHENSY
Chain of Mitogen-activated protein kinase kinase kinase 20 (Homo sapiens) (Q9NYL2 2-800 limits assumed): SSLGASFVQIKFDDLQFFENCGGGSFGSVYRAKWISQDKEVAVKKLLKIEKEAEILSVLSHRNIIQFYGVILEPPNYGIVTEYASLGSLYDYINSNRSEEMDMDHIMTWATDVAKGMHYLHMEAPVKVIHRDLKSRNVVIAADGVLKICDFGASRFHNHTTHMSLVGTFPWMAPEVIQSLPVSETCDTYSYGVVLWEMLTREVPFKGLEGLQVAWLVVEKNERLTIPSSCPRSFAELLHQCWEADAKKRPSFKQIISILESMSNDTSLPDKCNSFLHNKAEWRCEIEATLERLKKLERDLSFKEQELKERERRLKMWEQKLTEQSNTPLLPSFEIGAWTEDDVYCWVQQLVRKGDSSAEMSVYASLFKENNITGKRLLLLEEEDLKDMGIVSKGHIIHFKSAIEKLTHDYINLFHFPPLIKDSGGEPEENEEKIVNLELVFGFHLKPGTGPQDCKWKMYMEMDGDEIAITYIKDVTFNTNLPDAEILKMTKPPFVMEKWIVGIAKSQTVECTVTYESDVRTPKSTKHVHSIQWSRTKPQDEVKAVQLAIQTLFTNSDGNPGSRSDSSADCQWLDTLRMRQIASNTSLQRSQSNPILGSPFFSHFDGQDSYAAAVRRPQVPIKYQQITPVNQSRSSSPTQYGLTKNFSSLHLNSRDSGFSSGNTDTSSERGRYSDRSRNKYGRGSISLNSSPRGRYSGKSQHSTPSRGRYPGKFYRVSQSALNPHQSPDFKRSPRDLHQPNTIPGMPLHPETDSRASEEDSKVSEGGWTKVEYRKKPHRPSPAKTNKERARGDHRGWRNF

SMILES	Activity [1]	Activity [2]	Activity [3]
O=C(c1cccc(NS(=O)(=O)Cc2ccccc2)c1F)c1c[nH]c2ncc(-c3cccnc3)cc12	20%	1.7%	85%
CCCS(=O)(=O)Nc1ccc(F)c(C(=O)c2c[nH]c3ncc(-c4cccc(F)c4)cc23)c1F	45%	0.8%	90%
O=C(c1cccc(NS(=O)(=O)Cc2ccccc2)c1F)c1c[nH]c2ncc(-c3ccncc3)cc12	26%	0.95%	95%
CCCS(=O)(=O)Nc1ccc(F)c(C(=O)c2c[nH]c3ncc(-c4ccccc4OC)cc23)c1F	43%	16%	100%
CCCCS(=O)(=O)Nc1ccc(F)c(C(=O)c2c[nH]c3ncc(-c4ccc(Cl)cc4)cc23)c1F	75%	29%	100%
Cc1cc(F)ccc1-c1cnc2[nH]cc(C(=O)c3cccc(NS(=O)(=O)Cc4ccccc4)c3F)c2c1	97%	90%	98%
O=C(c1c(F)ccc(NS(=O)(=O)Cc2ccc(F)cc2)c1F)c1c[nH]c2ncc(-c3ccc(Cl)cc3)cc12		61%	100%
CCCS(=O)(=O)Nc1cccc(C(=O)c2c[nH]c3ncc(-c4ccc(Cl)cc4)cc23)c1	44%		100%
CCCS(=O)(=O)Nc1cccc(C(=O)c2c[nH]c3ncc(-c4ccc(Cl)cc4)cc23)c1Cl	79%	68%	100%
CCCS(=O)(=O)Nc1ccc(F)c(C(=O)c2c[nH]c3ncc(-c4cccc(Cl)c4)cc23)c1F		2.2%	85%
O=C(c1c(F)ccc(NS(=O)(=O)Cc2ccccc2)c1F)c1c[nH]c2ncc(-c3ccc(Cl)cc3)cc12	94%	30%	100%
CCCS(=O)(=O)Nc1ccc(F)c(C(=O)c2c[nH]c3ncc(-c4ccco4)cc23)c1F	78%	2.1%	95%
CCCS(=O)(=O)Nc1ccc(F)c(C(=O)c2c[nH]c3ncc(-c4cccc(C)c4)cc23)c1F	28%	0.7%	97%
Cc1ccc(CS(=O)(=O)Nc2ccc(F)c(C(=O)c3c[nH]c4ncc(-c5ccc(Cl)cc5)cc34)c2F)cc1		87%	90%
CCCS(=O)(=O)Nc1ccc(F)c(C(=O)c2c[nH]c3ncc(-c4cccc(OC)c4)cc23)c1F	18%	23%	100%
O=C(c1c(F)ccc(NS(=O)(=O)CCC(F)(F)F)c1F)c1c[nH]c2ncc(-c3ccc(Cl)cc3)cc12	54%	3.5%	100%
CCCS(=O)(=O)Nc1ccc(F)c(C(=O)c2c[nH]c3ncc(-c4cncnc4)cc23)c1F	80%	3.5%	81%
CCCS(=O)(=O)Nc1ccc(F)c(C(=O)c2c[nH]c3ncc(-c4cnc(OC)nc4)cc23)c1F	86%	8.9%	84%
C#Cc1cnc2[nH]cc(C(=O)c3c(F)ccc(NS(=O)(=O)CCC)c3F)c2c1	89%	1.4%	100%
CCCC(=O)Nc1ccc(F)c(C(=O)c2c[nH]c3ncc(-c4ccc(Cl)cc4)cc23)c1F	91%	78%	94%
CCCS(=O)(=O)Nc1ccc(F)c(C(=O)c2c[nH]c3ncc(-c4ccc5c(c4)OCO5)cc23)c1F	76%	0.45%	90%
CCCS(=O)(=O)Nc1ccc(F)c(C(=O)c2c[nH]c3ncc(-c4ccccc4Cl)cc23)c1F	79%	7.6%	100%
